According to ChEMBL document CHEMBL1201862, “PubChem BioAssay data set” (2004):
Calls of active or inactive are those of the source.

Tests used:
[1] = NIH3T3 cell viability loss – ATP luminescence, mouse fibroblasts, counter-screen, dose response (AID 2010); format: functional, cell-based;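 also: cells exposed to compound for about 90 hours before reading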
[2] = Trypanosoma cruzi growth suppression in host cells – NIH3T3 host cells, beta-gal luminescence, confirmation (AID 2044); format: functional, cell-based;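 also: intracellular parasites grown in NIH/3T3 mouse fibroblasts as host cells; luminescent beta-galactosidase reporter signal from transgenic T. cruzi replicating inside host cells; inhibitors lower the luminescence signal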
[3] = A Cell Based Secondary Assay To Explore Cytotoxicity of Compounds that Sensitize Mycobacterium Tuberculosis to Beta-Lactam Antibiotics.; format: functional
[4] = viability loss in THP-1 monocytes – THP-1 cells, cytotoxicity control for Vif-APOBEC3G degradation inhibitor project, dose response (AID 1117359); format: functional; conditions: THP-1
CHO = CHO cell viability loss, potency – luminescence, cytotoxicity control for TLR9-MyD88 binding inhibitor project, dose response (AID 588339); format: functional, cell-based, hamster; conditions: Cricetulus griseus;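 also: CHO cells stably coexpressing TLR9 and MyD88 fusions from primary screen; compound exposure lasted 48 hours before viability readout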
Beta Lactamase = Beta Lactamase (Pseudomonas aeruginosa, UniProt Q932Y6); test: BLA reporter interference, concentration series – BLA reporter cells, FRET fluorescence, artefact control for TLR9-MyD88 binding inhibitor project, dose response (AID 588341); format: cell-based;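 also: cell based assay in CHO-K1 cells stably expressing beta-lactamase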
[5] = HIV-1 AD8 envelope cell-cell fusion blockers – cherry-pick, dose response (AID 652062); format: functional, cell-based;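 also: luciferase signal from cell-cell fusion driven by HIV-1 clade B AD8 Env; potency is for inhibitors of fusion seen as a drop in luminescence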
HEK293 [6] = test: cells; conditions: Homo sapiens
[7] = blockers of HIV-1 envelope-mediated cell-cell fusion – cherry-pick, dose response (AID 652057); format: functional, cell-based
[8] = off-target signal loss in HeLa-CEM21 co-culture – HeLa F-luc CTL cells, cherry-picked, counter-screen for HIV-1 Env fusion inhibitor project, dose response (AID 652040); format: functional, cell-based;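 also: potency for signal decrease marking cytotoxic or nonspecific inhibition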
[9] = blockers of HIV-1 ZM109 envelope-driven cell-cell fusion – HeLa effector, CEM target cells, luciferase, cherry-pick, dose response (AID 652058); format: functional, cell-based;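 also: luciferase signal from HIV-1 Env mediated cell-cell fusion of effector and target cells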
HEK293 [10] = test: cells; conditions: Homo sapiens; remark: listed apart in the source
[11] = biological target: T1, E3 ubiquitin-protein ligase XIAP (Homo sapiens, UniProt P98170); test: small molecules displacing peptide from XIAP – biochemical, IAP family, fluorescence polarization (AID 1018); format: functional
[12] = biological target: T1, E3 ubiquitin-protein ligase XIAP; test: Counter Screen using XIAP-Bir3 for Chemical Antagonists of Bir1/2 domains of IAP-family anti-apoptotic proteins. [Related pubchem assays (depositor defined):AID1018, AID1449, AID1514, AID1638, AID1749, AID1750, AID488957, AID488963]
[13] = loss of viability in HepG2 cells – cell-based, CellTiter-Glo, cherry-picked, cytotoxicity control for Shn3 inhibitor project, dose response (AID 624134); format: functional
[14] = non-specific 3'UTR reporter inhibition in Clone20-Shn3RL – cell-based, Renilla luciferase, cherry-picked, counter-screen for Shn3 inhibitor project, dose response (AID 624133); format: functional
[15] = microbe, parasite or virus in culture; format: functional; conditions: Mycobacterium tuberculosis
[16] = reduction of Shn3 3'UTR-driven luciferase in osteoblasts – cell-based, Clone20 osteoblasts, firefly luciferase, cherry-picked, dose response (AID 624132); format: functional;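 also: firefly luciferase luminescence from reporter carrying the Shn3 3'UTR in osteoblasts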
[17] = biological target: G-protein coupled receptor 55 (Homo sapiens, UniProt Q9Y2T6); test: inhibition of LPI-stimulated GPR55 beta-arrestin translocation – imaging, U2OS, beta-arrestin-GFP, LPI agonist, primary screen (AID 2013); format: functional;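 also: antagonist potency measured as reduced agonist-driven arrestin aggregation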
[18] = biological target: T2, Tyrosine-protein phosphatase non-receptor type 7 (Homo sapiens, UniProt P35236); test: redox-active compounds inhibiting HePTP phosphatase – biochemical, fluorescence, mechanism study (AID 2068); format: functional
T2 sequence (P35236 whole entry): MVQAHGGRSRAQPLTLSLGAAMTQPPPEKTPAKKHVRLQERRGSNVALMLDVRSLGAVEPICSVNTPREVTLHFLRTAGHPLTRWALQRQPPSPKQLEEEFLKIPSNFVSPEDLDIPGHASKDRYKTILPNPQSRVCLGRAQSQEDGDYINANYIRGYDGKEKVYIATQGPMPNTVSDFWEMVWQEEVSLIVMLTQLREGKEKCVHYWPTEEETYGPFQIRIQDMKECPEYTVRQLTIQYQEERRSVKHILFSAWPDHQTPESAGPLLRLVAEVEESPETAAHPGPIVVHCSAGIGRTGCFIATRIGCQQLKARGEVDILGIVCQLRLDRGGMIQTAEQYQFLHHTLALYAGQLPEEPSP

Vero = test: cells; format: functional; conditions: Chlorocebus sabaeus
[19] = Luminescence Cell-Based Dose Retest to Confirm Inhibitors of Cancer Stem Cells. [Related pubchem assays (depositor defined):AID2717, AID2721]; format: functional; conditions: Homo sapiens

T1 sequence (P98170 whole entry): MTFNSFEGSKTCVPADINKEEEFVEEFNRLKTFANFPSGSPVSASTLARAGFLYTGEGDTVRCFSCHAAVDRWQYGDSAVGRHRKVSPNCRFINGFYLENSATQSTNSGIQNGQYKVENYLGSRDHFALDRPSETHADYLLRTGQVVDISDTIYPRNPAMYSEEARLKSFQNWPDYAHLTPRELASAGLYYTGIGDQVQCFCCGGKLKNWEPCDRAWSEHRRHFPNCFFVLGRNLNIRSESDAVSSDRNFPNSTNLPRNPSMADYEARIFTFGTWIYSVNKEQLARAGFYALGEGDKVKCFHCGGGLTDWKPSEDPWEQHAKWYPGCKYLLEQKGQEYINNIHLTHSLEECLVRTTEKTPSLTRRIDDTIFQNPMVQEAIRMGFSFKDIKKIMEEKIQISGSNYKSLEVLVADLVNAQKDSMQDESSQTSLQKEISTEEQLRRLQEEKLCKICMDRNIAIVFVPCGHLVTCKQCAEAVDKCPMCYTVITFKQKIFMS
Sequence of G-protein coupled receptor 55 (Q9Y2T6 whole entry): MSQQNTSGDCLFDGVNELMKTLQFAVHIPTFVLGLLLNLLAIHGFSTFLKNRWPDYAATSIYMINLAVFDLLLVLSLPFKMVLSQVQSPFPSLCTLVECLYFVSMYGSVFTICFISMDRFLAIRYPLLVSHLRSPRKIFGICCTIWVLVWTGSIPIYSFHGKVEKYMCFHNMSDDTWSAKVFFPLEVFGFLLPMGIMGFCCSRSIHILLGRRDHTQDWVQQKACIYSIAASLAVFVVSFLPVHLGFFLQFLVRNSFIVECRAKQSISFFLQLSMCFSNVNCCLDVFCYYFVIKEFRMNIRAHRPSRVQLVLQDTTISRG
Sequence of Beta Lactamase (Q932Y6 whole entry, the tested form may be a part): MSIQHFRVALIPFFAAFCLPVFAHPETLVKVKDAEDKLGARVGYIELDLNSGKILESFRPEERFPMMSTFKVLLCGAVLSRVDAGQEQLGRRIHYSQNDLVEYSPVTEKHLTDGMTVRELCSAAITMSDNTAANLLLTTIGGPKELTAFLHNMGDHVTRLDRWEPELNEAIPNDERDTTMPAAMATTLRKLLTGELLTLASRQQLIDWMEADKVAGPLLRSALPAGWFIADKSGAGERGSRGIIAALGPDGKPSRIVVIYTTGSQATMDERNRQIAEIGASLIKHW

CCn1c(=O)c2cc(C(=O)N(C)c3ccccc3F)sc2c2ccccc21
EC50 [1]: > 30 µM (not active)
EC50 [2]: 1.04 µM (active)
CC50 [3]: > 40 µM (active)
CC50 [4]: > 40 µM (active)

CN(C)C=O.CN(C)c1ccc(/C=C/c2nc3ccccc3c(=O)n2-c2ccc(C(=O)O)cc2)cc1
IC50 (CHO): > 49.7 µM (inactive)
IC50 (Beta Lactamase): 9 µM (active)

COCCCN(C(=S)NC(=O)C12CC3CC(CC(C3)C1)C2)c1c(N)n(Cc2ccccc2)c(=O)[nH]c1=O
AC50 [5]: 4.29 µM (active)
EC50 (HEK293 [6]): > 59.7 µM (inactive)
AC50 [7]: 1.97 µM (active)
AC50 [8]: 1.92 µM (active)
AC50 [9]: 2.64 µM (active)
EC50 (HEK293 [10]): > 59.7 µM (inactive)

C=CCn1c(SCC(=O)NCc2ccco2)nnc1-c1ccc2ccccc2n1
IC50 [11]: > 100 µM (not active)
IC50 [12]: > 100 µM (inactive)

Nc1cc(Cl)c2nonc2c1[N+](=O)[O-]
EC50 (HEK293 [6]): > 59.7 µM (inactive)
AC50 [13]: 29.6 µM (active)
IC50 (CHO): 2.12 µM (active)
AC50 [14]: 1.37 µM (active)
CC50 [15]: 12 µM (active)
EC50 (HEK293 [10]): > 59.7 µM (inactive)
IC50 (Beta Lactamase): > 49.7 µM (inactive)
AC50 [16]: 5.37 µM (active)

O=C(Nc1ccc(F)cc1)c1ccccc1CC[N+](=O)[O-]
IC50 [11]: > 100 µM (not active)
IC50 [12]: > 100 µM (inactive)

CC1(Cc2ccc(C(F)(F)F)nc2)C(=O)Nc2cc(-c3ccccc3Cl)ccc21 (stereo unspecified)
EC50 (HEK293 [6]): > 59.6 µM (inactive)
EC50 (HEK293 [10]): > 59.6 µM (inactive)

O=C1CSC(c2ccccc2Br)N1c1ccc(Cl)cn1 (stereo unspecified)
IC50 [17]: 4.58 µM (active)

CC1CC(N(C(=O)c2ccco2)c2ccccc2)c2ccccc2N1C(=O)c1ccco1 (stereo unspecified)
IC50 [17]: 5.52 µM (active)

O=C(Nc1ccc(Cl)cc1)Nc1ccc2nc(-c3ccco3)c(-c3ccco3)nc2c1
IC50 [18]: 0.949 µM (active)

C=CCC[C@@H](Cc1ccc(F)cc1)C(=O)OC[C@@H](Cc1c[nH]c2ccccc12)NC(=O)[C@@H](CC=C)CC(=O)N(CCO)Cc1ccccc1
CC50 (Vero): 15.5 µM (active)
AC50 [19]: 5.96 µM (active)
